Measured values: US20160316790A1, “BETA-HINOKITIOL DERIVATIVES AND APPLICATIONS THEREOF IN PREPARATION OF ANIMAL ANTIBACTERIAL AGENTS AND ANTIBACTERIAL GROWTH PROMOTERS USED IN FEED” (GUANGZHOU INSIGHTER BIOTECHNOLOGY CO., LTD., priority 2013, published 2016)
Converted amounts (≈) assume the structure as drawn. “And” between values parts separate entries of the source, which are not always exact repeats. Identical values can stand only once. Like-named read-outs stand apart in the source and are kept apart here.

Assays:
[1] = system: riemerella anatipestifer; assay: Protection effect against attacking and infection of riemerella anatipestifer; settings: ducks, 5 × 10^7 CFU/bird, 10 mg/kg weight intramuscular, 7 days
[2] = system: riemerella anatipestifer; assay: Minimum inhibitory concentration in vitro, doubling dilutions; assay type: cell-based
[3] = system: vibrio; assay: as above; assay type: cell-based
[4] = Effect of β-hinokitiol derivatives on diarrhea of weaned pigs; assay type: in vivo; settings: weaned pigs, 10 days
Text: 80 25-day-old weaned pigs were randomly divided into eight groups according to table 7, 10 pigs in each group. […] During the testing, the pigs ate food and drank water freely with temperature preservation. The test lasted for 10 days.

[5] = system: haemophilus parasuis; assay: Minimum inhibitory concentration in vitro, doubling dilutions; assay type: cell-based; settings: Glaesserella parasuis
[6] = system: staphylococcus aureus; assay: as above; assay type: cell-based
[7] = system: escherichia coli; assay: as above; assay type: cell-based
[8] = system: clostridium perfringens; assay: microbe, parasite or virus in culture; assay type: cell-based
[9] = system: salmonellas; assay: Minimum inhibitory concentration in vitro, doubling dilutions; assay type: cell-based
[10] = system: streptococcus; assay: as above; assay type: cell-based
[11] = system: major animal pathogenic bacteria; assay: In vitro antibacterial activity (MICs), overall statement; assay type: cell-based; settings: Tables 1 to 4
[12] = Application effect test of β-hinokitiol derivatives in broiler feeds; assay type: in vivo, fast-grown type yellow feather broilers; settings: 14 days
Text: 598 fast-grown type yellow feather broilers (female) aged 30-days were divided into five groups according to table 5. […] During the test, the broilers ate food and drank water freely. The test lasted for 14 days. […] [table]

[13] = strain SCAU03, read-out: Minimum inhibitory concentration (MIC), Riemerella anatipestifer SCAU03
[14] = read-out: Minimum inhibitory concentration (MIC), Vibrio VP3
[15] = read-out: Minimum inhibitory concentration (MIC), Vibrio VP5
[16] = strain 2-3A, read-out: Minimum inhibitory concentration (MIC), Haemophilus parasuis 2-3A
[17] = read-out: Minimum inhibitory concentration (MIC), Eserichia coli HZ1308-1
[18] = read-out: Minimum inhibitory concentration (MIC), Eserichia coli SS1107A
[19] = read-out: Minimum inhibitory concentration (MIC), Clostridium JM1210B
[20] = read-out: Minimum inhibitory concentration (MIC), Clostridium JM1212A
[21] = strain FS1303B, read-out: Minimum inhibitory concentration (MIC), Salmonellas FS1303B
[22] = strain GD1303-3, read-out: Minimum inhibitory concentration (MIC), Salmonellas GD1303-3
[23] = strain KP1307-1, read-out: Minimum inhibitory concentration (MIC), Streptococcus KP1307-1
[24] = strain TS1205-2, read-out: Minimum inhibitory concentration (MIC), Streptococcus TS1205-2
[25] = read-out: Minimum inhibitory concentration (MIC), Riemerella anatipestifer SCAU03
[26] = strain WS, read-out: Minimum inhibitory concentration (MIC), Riemerella anatipestifer WS
[27] = broilers, 40 ppm mixed with feed
[28] = read-out: Minimum inhibitory concentration (MIC), Streptococcus KP1307-1
[29] = read-out: Minimum inhibitory concentration (MIC), Haemophilus parasuis S5A
[30] = read-out: Minimum inhibitory concentration (MIC), Haemophilus parasuis 2-3A

| Compound | MIC [3, 14] | MIC [3, 15] | MIC [5, 16] | MIC [7, 17] | MIC [7, 18] | MIC [8, 19] | MIC [8, 20] | MIC [9, 21] | MIC [9, 22] | MIC [10, 23] | MIC [10, 24] | MIC [2, 25] | MIC [2, 26] | MIC [5, 29] | also measured |
| --- | --- | --- | --- | --- | --- | --- | --- | --- | --- | --- | --- | --- | --- | --- | --- |
| CO/N=C(\C(=O)N[C@@H]1C(=O)N2C(C(=O)O)=C(COC(C)=O)CS[C@H]12)c1csc(N)n1 [Cefotaxime, reference compound] |  |  |  |  |  |  |  |  |  |  |  |  |  |  | Death rate [1]: 0%; Morbidity [1]: 25% |
| CC(C)c1cccc(=O)c(O)c1 [IST_001_002, 2-hydroxy-4-isopropyl-1-cycloheptatrienone, reference compound] | 25 µg/mL (≈ 152 µM) | 25 µg/mL (≈ 152 µM) | 0.78 µg/mL (≈ 4.75 µM) | 25 µg/mL (≈ 152 µM) | 25 µg/mL (≈ 152 µM) | 6.25 µg/mL (≈ 38.1 µM) | 12.5 µg/mL (≈ 76.1 µM) | 25 µg/mL (≈ 152 µM) | 25 µg/mL (≈ 152 µM) | 50 µg/mL (≈ 304 µM) | 50 µg/mL (≈ 304 µM) |  |  |  | MIC ([2]; read-out: Minimum inhibitory concentration (MIC), Riemerella anatipestifer WS): 6.25 µg/mL (≈ 38.1 µM); MIC [2, 13]: 25 µg/mL (≈ 152 µM); Average daily diarrhea rate ([4]; 30 ppm in diet): 35% and 32%; MIC ([6]; strain PNB14, read-out: Minimum inhibitory concentration (MIC), Staphylococcus aureus PNB14): 25 µg/mL (≈ 152 µM); MIC ([6]; strain SA10, read-out: Minimum inhibitory concentration (MIC), Staphylococcus aureus SA10): 25 µg/mL (≈ 152 µM) |
| CCCCCc1cccc(=O)c(O)c1 [IST_009_003, 2-hydroxy-4-pentylcyclohepta-2,4,6-trienone] | 50 µg/mL (≈ 260 µM) | 25 µg/mL (≈ 130 µM) | 0.2 µg/mL (≈ 1.04 µM) | 6.25 µg/mL (≈ 32.5 µM) | 12.5 µg/mL (≈ 65 µM) | 6.25 µg/mL (≈ 32.5 µM) | 6.25 µg/mL (≈ 32.5 µM) | 6.25 µg/mL (≈ 32.5 µM) | 12.5 µg/mL (≈ 65 µM) |  |  | 12.5 µg/mL (≈ 65 µM) | 3.13 µg/mL (≈ 16.3 µM) |  | antibacterial activities compared with the lead compound IST_001_002 (in words) [11]: better than those of the lead compound IST_001_002; Average daily weight gain [12, 27]: 36.21 g/d * bird and 34.19 g/d * bird and 37.14 g/d * bird; Average weight gain [12, 27]: 502.05 g and 449.90 g and 534.50 g; Total consumption [12, 27]: 58.05 kg and 57.71 kg and 58.17 kg; feed conversion efficiency [12, 27]: 2.862 and 2.952 and 2.868; weight gain and feed conversion efficiency of the experimental broilers (in words) ([12]; in feed): could enhance the weight gain and the feed conversion efficiency; MIC [10, 28]: 12.5 µg/mL (≈ 65 µM); MIC ([10]; read-out: Minimum inhibitory concentration (MIC), Streptococcus TS1205-2): 12.5 µg/mL (≈ 65 µM) |
| O=c1cccc(Cc2ccccc2)cc1O [IST_009_004, 4-benzyl-2-hydroxycyclohepta-2,4,6-trienone] | 50 µg/mL (≈ 236 µM) | 50 µg/mL (≈ 236 µM) | 0.78 µg/mL (≈ 3.67 µM) | 12.5 µg/mL (≈ 58.9 µM) | 25 µg/mL (≈ 118 µM) | 12.5 µg/mL (≈ 58.9 µM) | 12.5 µg/mL (≈ 58.9 µM) | 25 µg/mL (≈ 118 µM) | 25 µg/mL (≈ 118 µM) | 6.25 µg/mL (≈ 29.4 µM) | 50 µg/mL (≈ 236 µM) | 12.5 µg/mL (≈ 58.9 µM) | 6.25 µg/mL (≈ 29.4 µM) | 0.2 µg/mL (≈ 0.942 µM) |  |
| CCC(C)c1cccc(=O)c(O)c1 (stereo not shown) [IST_009_008, 4-(sec-butyl)-2-hydroxycyclohepta-2,4,6-trienone] | 50 µg/mL (≈ 281 µM) | 25 µg/mL (≈ 140 µM) | 0.39 µg/mL (≈ 2.19 µM) | 25 µg/mL (≈ 140 µM) | 25 µg/mL (≈ 140 µM) | 12.5 µg/mL (≈ 70.1 µM) | 12.5 µg/mL (≈ 70.1 µM) | 25 µg/mL (≈ 140 µM) | 25 µg/mL (≈ 140 µM) | 50 µg/mL (≈ 281 µM) | 50 µg/mL (≈ 281 µM) | 12.5 µg/mL (≈ 70.1 µM) | 6.25 µg/mL (≈ 35.1 µM) |  |  |
| CCc1cccc(=O)c(O)c1 [IST_009_018, 4-ethyl-2-hydroxycyclohepta-2,4,6-trienone] | 25 µg/mL (≈ 166 µM) | 25 µg/mL (≈ 166 µM) |  | 25 µg/mL (≈ 166 µM) | 50 µg/mL (≈ 333 µM) | 3.13 µg/mL (≈ 20.8 µM) | 3.13 µg/mL (≈ 20.8 µM) | 12.5 µg/mL (≈ 83.2 µM) | 25 µg/mL (≈ 166 µM) |  | > 100 µg/mL | 12.5 µg/mL (≈ 83.2 µM) | 6.25 µg/mL (≈ 41.6 µM) | 1.56 µg/mL (≈ 10.4 µM) | MIC [5, 30]: 3.13 µg/mL (≈ 20.8 µM); MIC [10, 28]: 12.5 µg/mL (≈ 83.2 µM) |
| CCCCc1cccc(=O)c(O)c1 [IST_009_019, 4-butyl-2-hydroxycyclohepta-2,4,6-trienone] | 50 µg/mL (≈ 281 µM) | 50 µg/mL (≈ 281 µM) | 0.39 µg/mL (≈ 2.19 µM) | 25 µg/mL (≈ 140 µM) | 25 µg/mL (≈ 140 µM) | 12.5 µg/mL (≈ 70.1 µM) | 6.25 µg/mL (≈ 35.1 µM) | 25 µg/mL (≈ 140 µM) | 25 µg/mL (≈ 140 µM) | > 100 µg/mL | 25 µg/mL (≈ 140 µM) |  |  | 0.2 µg/mL (≈ 1.12 µM) |  |
| O=c1cccc(Cc2ccc(Cl)cc2)cc1O [IST_009_025, 4-(4-chlorobenzyl)-2-hydroxycyclohepta-2,4,6-trienone] | > 100 µg/mL | > 100 µg/mL |  |  |  |  |  |  |  | 25 µg/mL (≈ 101 µM) | 25 µg/mL (≈ 101 µM) |  |  |  |  |
| O=c1cccc(Cc2ccc(F)cc2)cc1O [IST_009_028, 4-(4-fluorobenzyl)-2-hydroxycyclohepta-2,4,6-trienone] | 100 µg/mL (≈ 434 µM) | 100 µg/mL (≈ 434 µM) |  |  |  |  |  |  |  | 25 µg/mL (≈ 109 µM) | 25 µg/mL (≈ 109 µM) |  |  |  |  |
| CCCCCCCCc1cccc(=O)c(O)c1 [IST_009_030, 2-hydroxy-4-octylcyclohepta-2,4,6-trienone] | > 100 µg/mL | > 100 µg/mL | 6.25 µg/mL (≈ 26.7 µM) | 25 µg/mL (≈ 107 µM) | > 100 µg/mL | 25 µg/mL (≈ 107 µM) | 12.5 µg/mL (≈ 53.3 µM) | 25 µg/mL (≈ 107 µM) | > 100 µg/mL | 25 µg/mL (≈ 107 µM) | 25 µg/mL (≈ 107 µM) | 12.5 µg/mL (≈ 53.3 µM) | 3.13 µg/mL (≈ 13.4 µM) | 0.39 µg/mL (≈ 1.66 µM) | MIC ([6]; read-out: Minimum inhibitory concentration (MIC), Staphylococcus aureus PNB14): 12.5 µg/mL (≈ 53.3 µM); MIC ([6]; read-out: Minimum inhibitory concentration (MIC), Staphylococcus aureus SA10): 12.5 µg/mL (≈ 53.3 µM) |
| O=c1cccc(CCCF)cc1O [IST_009_031, 4-(3-fluoropropyl)-2-hydroxycyclohepta-2,4,6-trienone] |  |  |  | 25 µg/mL (≈ 137 µM) | 100 µg/mL (≈ 549 µM) | 6.25 µg/mL (≈ 34.3 µM) | 6.25 µg/mL (≈ 34.3 µM) | 50 µg/mL (≈ 274 µM) | 50 µg/mL (≈ 274 µM) |  |  |  |  | 3.13 µg/mL (≈ 17.2 µM) | MIC [5, 30]: 6.25 µg/mL (≈ 34.3 µM) |
| CCCCCCCCCCCCCCc1cccc(=O)c(O)c1 [IST_009_033, 2-hydroxy-4-tetradecylcyclohepta-2,4,6-trienone] | > 100 µg/mL | > 100 µg/mL | 50 µg/mL (≈ 157 µM) | > 100 µg/mL | > 100 µg/mL | 50 µg/mL (≈ 157 µM) | 50 µg/mL (≈ 157 µM) | > 100 µg/mL | > 100 µg/mL | > 100 µg/mL | > 100 µg/mL |  | 25 µg/mL (≈ 78.5 µM) |  | MIC [2, 13]: 100 µg/mL (≈ 314 µM) |
| Colistin sulfate [reference compound] |  |  |  |  |  |  |  |  |  |  |  |  |  |  | Average daily diarrhea rate ([4]; 60 ppm in diet): 30% and 33% |
